Measurements taken from ChEMBL document CHEMBL1132851, “Synthesis of the repeating unit of the O-specific polysaccharide of Shigella sonnei and quantitation of its serologic activity” (Bioorg Med Chem Lett, 2000).
pIC50: −log10 of the molar value.

Tested on: Shigella sonnei
Experiment: Compound was evaluated for the inhibition of hemolysis of Shigella sonneili polysaccharide-sensitized erythrocyte using a hyper-immune rabbit serum
Format: functional, organism-based

`CO[C@@H]1OC(C(=O)O)[C@H](O)C(O)[C@@H]1NC(C)=O` (stereo partly drawn) showed a pIC50 of 2.16.

For `CO[C@@H]1OC(C)[C@H](N)C(O)[C@@H]1NC(C)=O` (stereo partly drawn), the pIC50 was 2.01.

`CO[C@@H]1OC(C(=O)O)[C@H](O[C@@H]2OC(C)[C@H](N)C(O)[C@@H]2NC(C)=O)C(O)[C@@H]1NC(C)=O` (stereo partly drawn) showed a pIC50 of 2.41.
